# Measured values reported in patent US20170291890A1 (Epizyme, Inc., priority 2014, published 2017).
# Where two headings read alike, the source gives them in different places.
# Target: T1, KDM5A (Homo sapiens, UniProt P29375)
# T1 construct: C-terminal FLAG-tagged KDM5A^1-1090 was purchased from BPS Biosciences; FLAG (C); purchased BPS Biosciences
# T1 sequence (P29375 1-1090): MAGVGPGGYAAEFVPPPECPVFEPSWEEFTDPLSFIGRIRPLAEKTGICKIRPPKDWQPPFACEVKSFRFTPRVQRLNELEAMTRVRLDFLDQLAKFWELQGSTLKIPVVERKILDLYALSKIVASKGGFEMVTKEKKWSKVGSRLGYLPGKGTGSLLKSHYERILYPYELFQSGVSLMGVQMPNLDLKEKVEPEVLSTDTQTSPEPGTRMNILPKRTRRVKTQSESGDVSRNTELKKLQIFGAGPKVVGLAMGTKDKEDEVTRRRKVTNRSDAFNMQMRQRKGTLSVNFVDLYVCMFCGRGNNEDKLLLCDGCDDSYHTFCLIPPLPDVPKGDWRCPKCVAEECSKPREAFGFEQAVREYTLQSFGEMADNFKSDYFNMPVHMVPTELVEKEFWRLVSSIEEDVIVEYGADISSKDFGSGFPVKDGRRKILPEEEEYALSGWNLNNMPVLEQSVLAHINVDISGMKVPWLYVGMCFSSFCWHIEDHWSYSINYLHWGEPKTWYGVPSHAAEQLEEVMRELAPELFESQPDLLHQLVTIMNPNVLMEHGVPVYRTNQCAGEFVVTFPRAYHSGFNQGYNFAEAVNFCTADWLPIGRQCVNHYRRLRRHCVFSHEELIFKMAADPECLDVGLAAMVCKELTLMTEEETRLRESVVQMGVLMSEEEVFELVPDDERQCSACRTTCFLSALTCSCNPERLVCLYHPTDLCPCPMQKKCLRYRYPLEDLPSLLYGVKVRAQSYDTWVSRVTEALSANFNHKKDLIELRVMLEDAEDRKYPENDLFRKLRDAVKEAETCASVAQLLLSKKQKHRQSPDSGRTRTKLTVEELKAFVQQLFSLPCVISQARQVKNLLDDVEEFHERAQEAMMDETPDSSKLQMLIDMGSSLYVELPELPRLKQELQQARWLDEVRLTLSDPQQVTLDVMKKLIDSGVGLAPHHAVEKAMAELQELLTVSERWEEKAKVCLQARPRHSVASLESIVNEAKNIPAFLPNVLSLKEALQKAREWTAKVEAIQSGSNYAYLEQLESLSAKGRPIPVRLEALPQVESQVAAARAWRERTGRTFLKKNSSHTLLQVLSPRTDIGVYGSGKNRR
# Assay: KDM5A Assay (SAMDI mass spectrometry demethylase assay)
# Type: biochemical
# Conditions: C-terminal FLAG-tagged KDM5A 1-1090, read-out: 5A IC50
# In short: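 FLAG-tagged KDM5A 1-1090 (20 nM) preincubated 30 min with compound in pH 8.0 HEPES buffer with ascorbate, Fe(II), TCEP, then reacted 150 min at 25 °C with H3K4me3 peptide (250 nM) and 2-oxoglutarate (15 μM). Formic acid-quenched; SAMDI-MS substrate/product AUC conversion; IC50 from dose-response.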
compound,measurement,setting,value
"CN1CCC(n2ncc(Nc3cnccc3C(=O)O)c2-c2ccccc2)CC1 [Compound 126, 3-(1-(1-methylpiperidin-4-yl)-5-phenyl-1H-pyrazol-4-ylamino) isonicotinic acid]",IC50,class symbols,1000 to 10000 nM
"Cc1nn(C2CCN(C3CCC3)CC2)cc1Nc1cnccc1C(=O)O [Compound 94, 3-(1-(1-cyclobutylpiperidin-4-yl)-3-methyl-1H-pyrazol-4-ylamino)isonicotinic acid]",IC50,class symbols,100 to 1000 nM
Cc1ccc(-n2cc(Nc3cnccc3C(=O)O)c(C)n2)cc1 [Compound 82],IC50,class symbols,1 to 100 nM
"Cc1nn(C2CCN(C3CN(C)C3)CC2)cc1Nc1cnccc1C(=O)O [Compound 91, 3-(3-methyl-1-(1-(1-methylazetidin-3-yl)piperidin-4-yl)-1H-pyrazol-4-ylamino)isonicotinic acid]",IC50,class symbols,100 to 1000 nM
"COC(=O)c1ccncc1Nc1cnn(C2CCN(C3CCC3)CC2)c1C [Compound 95, methyl 3-((1-(1-cyclobutylpiperidin-4-yl)-5-methyl-1H-pyrazol-4-yl)amino)isonicotinate]",IC50,class symbols,10000 to 100000 nM
Cn1ncc(-c2cccnc2)c1Nc1cnccc1C(=O)O [Compound 4],IC50,numeric bound,> 100000 nM
"NC1CCC(n2nc(-c3cccc(Cl)c3)cc2Nc2cnccc2C(=O)O)CC1 (centres unmarked) [Compound 85, 3-((1-(4-aminocyclohexyl)-3-(3-chlorophenyl)-1H-pyrazol-5-yl)amino)isonicotinic acid]",IC50,class symbols,1000 to 10000 nM
"NC1CCC(n2nc(Nc3cnccc3C(=O)O)cc2-c2cccc(Cl)c2)CC1 (centres unmarked) [Compound 87, 3-((1-(4-aminocyclohexyl)-5-(3-chlorophenyl)-1H-pyrazol-3-yl)amino)isonicotinic acid]",IC50,class symbols,1000 to 10000 nM
"CCc1c(Nc2cnccc2C(=O)O)cnn1-c1ccccc1 [Compound 81, 3-((5-ethyl-1-phenyl-1H-pyrazol-4-yl)amino)isonicotinic acid]",IC50,class symbols,1000 to 10000 nM
"Cc1nn(C2CCN(CC3CC3)CC2)cc1Nc1cnccc1C(=O)O [Compound 89, 3-(1-(1-(cyclopropylmethyl)piperidin-4-yl)-3-methyl-1H-pyrazol-4-ylamino)isonicotinic acid]",IC50,class symbols,100 to 1000 nM
"O=C(O)c1ccncc1Nc1cc(-c2cccc(Cl)c2)n(C2CCC3(CC2)OCCO3)n1 [Compound 86, 3-((5-(3-chlorophenyl)-1-(1,4-dioxaspiro[4.5]decan-8-yl)-1H-pyrazol-3-yl)amino)isonicotinic acid]",IC50,class symbols,1000 to 10000 nM
"Cc1c(Nc2cnccc2C(=O)O)cnn1C1CCN(CC2CC2)CC1 [Compound 90, 3-(1-(1-(cyclopropylmethyl)piperidin-4-yl)-5-methyl-1H-pyrazol-4-ylamino) isonicotinic acid]",IC50,class symbols,1000 to 10000 nM
Cn1nc(Nc2cnccc2C(=O)O)cc1-c1ccccc1 [Compound 5],IC50,class symbols,100 to 1000 nM
"Cc1c(Nc2cnccc2C(=O)O)cnn1C1CCN(C2CN(C)C2)CC1 [Compound 92, 3-(5-methyl-1-(1-(1-methylazetidin-3-yl)piperidin-4-yl)-1H-pyrazol-4-ylamino)isonicotinic acid]",IC50,class symbols,1000 to 10000 nM
"Cc1nn([C@H]2CC[C@@H](N)CC2)cc1Nc1cnccc1C(=O)O [Compound 80, 3-((1-((cis)-4-aminocyclohexyl)-3-methyl-1H-pyrazol-4-yl)amino)isonicotinic acid]",IC50,class symbols,1 to 100 nM
"COC(=O)c1ccncc1Nc1cn(C2CCN(C3CCC3)CC2)nc1C [Compound 93, methyl 3-((1-(1-cyclobutylpiperidin-4-yl)-3-methyl-1H-pyrazol-4-yl)amino)isonicotinate]",IC50,class symbols,10000 to 100000 nM
"O=C(O)c1ccncc1Nc1nn(-c2ccccc2)cc1-c1ccncc1 [Compound 88, 3-((1-phenyl-4-(pyridin-4-yl)-1H-pyrazol-3-yl)amino) isonicotinic acid]",IC50,class symbols,100 to 1000 nM
